Source: patent US8673370B2, “Method of improving cardiovascular health” (.Kemin Foods, L.C., priority 2006, dated 2014)

Columns and labels:
Format in all cases: in vivo, rat
[1] = test system: spontaneously hypertensive (SHR) rats; assay: Mean arterial pressure (MAP), daily for 14 days, in conscious catheterized hypertensive rats
Description: (§1) Additionally, daily soy isoflavone (SoyLife®, Acatris, Minneapolis, Minn.) supplementation was administered with BCX to both normotensive (WKY) and spontaneously hypertensive (SHR) rats to determine any beneficial hemodynamic contributions of soy to genetic hypertension. Animals receiving daily oral doses of BCX or BCX combined with the soy extract and comparisons of specific hemodynamic parameters (heart rate and blood pressure) were monitored for a period of two weeks in SHR rats and their genetically WKY counterparts. Plasma hydrogen peroxide concentrations were evaluated and show the effects of BCX on reactive oxygen species and their purported contribution to elevations in blood pressure in this hypertensive animal paradigm (Wilcox C. S., Reactive oxygen species: roles in blood pressure and kidney function. Curr Hypertens Rep. 2002 April; 4(2):160-6).
(§2) 1. Three days prior to the beginning of experiments, femoral arterial and venous catheters were implanted for the measurement of blood pressure and heart rate and for the collection of blood samples for the analysis of plasma CRP and cholesterol. Animals were housed in metabolic cages for chronic daily analysis for the remainder of the protocol.
(§3) SHR and WKY rats (Harlan, Indianapolis, Ind.) at age 10 weeks and weighing ˜250 g were used as experimental subjects and monitored for a two week period. All experimental protocols were performed in conscious, unrestrained animals. The animals were individually housed in wire mesh cages in temperature-controlled rooms (23° C.) with a 12-hour light/dark cycle. Each animal was allowed free access to isoflavone reduced chow (Harlan, Indianapolis, Ind.) and distilled water throughout the protocol(s). In addition to ad libitum food and water, animals were dosed daily by oral gavage with BCX (1.0 mg/kg, in safflower oil) or BCX+soy (1.0 mg BCX/kg+80 mg isoflavones/kg, in safflower oil). BCX dosage levels were based on the amount of BCX humans consume when eating according to the Dietary Guidelines for Americans: 0.5-1.0 mg per day (United States Department of Health and Human Services and United States Department of Agriculture. Dietary Guidelines for Americans 2005. Jan. 12, 2005. http://www.healthierus.gov/dietaryguidelines/; Centers for Disease Control and Prevention. National Center for Health Statistics. National Health and Nutrition Examination Survey Data 2001-2002. http://www.cdc.gov/nchs/about/major/nhanes/nhanes01-02.htm).
All surgical procedures were performed in animals anesthetized with sodium pentobarbital (Nembutal®, Abbott Laboratories) at a dose of 50 mg/kg, i.p. In addition, all surgery was performed under sterile conditions in a location in the laboratory dedicated for that purpose and according to those procedures adopted by the IACUC at Des Moines University-Osteopathic Medical Center. The implantations of femoral arterial and venous catheters were performed three days prior to any experimentation. The arterial and venous catheters were constructed from silicone and Tygon® tubing (Saint-Gobain Performance Plastics Corporation). The smaller silicone tubing was placed within the vessel, via the external iliac artery, to minimize tissue irritation and reaction. Normal body temperature was maintained during anesthesia via an electronically maintained dermal pad. The animals were shaved at the top of the head, back of the neck and the inner left leg. The silicone tips were inserted through a 3.0 cm incision made on the inner left leg for cannulation of the internal iliac vein and femoral artery; the arterial catheter was sutured to the leg in a manner preventing occlusion of the catheter during normal rat movement. Excess catheter was directed subcutaneously and externalized through a 2.5 cm incision made in the dermis overlying bregma. The cranial incision was made with a scalpel after which three 0.19″ jeweler's screws were attached to the cranium in a 1.0 cm^2 area which encompasses bregma. […]

normotensive (WKY) rats [2] = assay: Heart rate (HR), daily for 14 days, in conscious catheterized normotensive rats
Description: as §1, §2
(§4) SHR and WKY rats (Harlan, Indianapolis, Ind.) at age 10 weeks and weighing ˜250 g were used as experimental subjects and monitored for a two week period. All experimental protocols were performed in conscious, unrestrained animals. The animals were individually housed in wire mesh cages in temperature-controlled rooms (23° C.) with a 12-hour light/dark cycle. Each animal was allowed free access to isoflavone reduced chow (Harlan, Indianapolis, Ind.) and distilled water throughout the protocol(s). In addition to ad libitum food and water, animals were dosed daily by oral gavage with BCX (1.0 mg/kg, in safflower oil) or BCX+soy (1.0 mg BCX/kg+80 mg isoflavones/kg, in safflower oil). […]

[3] = test system: spontaneously hypertensive (SHR) rats; assay: Heart rate (HR), daily for 14 days, in conscious catheterized hypertensive rats; conditions: for Effect on heart rate (in words): vs. control fed food only (SHR-Control)
Description: as §1, §2, §3
All surgical procedures were performed in animals anesthetized with sodium pentobarbital (Nembutal®, Abbott Laboratories) at a dose of 50 mg/kg, i.p. In addition, all surgery was performed under sterile conditions in a location in the laboratory dedicated for that purpose and according to those procedures adopted by the IACUC at Des Moines University-Osteopathic Medical Center. The implantations of femoral arterial and venous catheters were performed three days prior to any experimentation. The arterial and venous catheters were constructed from silicone and Tygon® tubing (Saint-Gobain Performance Plastics Corporation). The smaller silicone tubing was placed within the vessel, via the external iliac artery, to minimize tissue irritation and reaction. Normal body temperature was maintained during anesthesia via an electronically maintained dermal pad. The animals were shaved at the top of the head, back of the neck and the inner left leg. […]

normotensive (WKY) rats [4] = assay: Mean arterial pressure (MAP), daily for 14 days, in conscious catheterized normotensive rats; conditions: for Blood pressure, Significance, comparison over 14 days: WKY rats
Description: as §1, §2, §4

[5] = vs. SHR-Control (rat chow only)
[6] = vs. SHR-Saff (safflower oil only)
[7] = vs. WKY-Saff (safflower oil only)

CC1=C(/C=C/C(C)=C/C=C/C(C)=C/C=C/C=C(C)/C=C/C=C(C)/C=C/C2=C(C)C[C@@H](O)CC2(C)C)C(C)(C)CCC1 [BCX, β-cryptoxanthin]
Days with statistically significant difference in blood pressure ([1]; vs. SHR controls, p<0.05): 4 to 13 days | Blood pressure, Significance, comparison over 14 days [1, 5]: Yes | Blood pressure, Significance, comparison over 14 days [1, 6]: No | Effect on mean arterial pressure / blood pressure (in words) ([1]; vs. control fed food only (SHR-Control)): statistically decreased the blood pressure | Effect on mean arterial pressure / blood pressure (in words) ([1]; vs. control fed food only (SHR-Control), listed as β-cryptoxanthin): significantly lower | Effect on mean arterial pressure / blood pressure (in words) ([1]; vs. safflower oil control (SHR-Saff)): significantly lower | Effect on heart rate (in words) (normotensive (WKY) rats [2]; vs. WKY-Control): statistical decrease in heart rate | Heart rate, Significance, comparison over 14 days (normotensive (WKY) rats [2]; vs. WKY-Control): Yes | Heart rate, Significance, comparison over 14 days (normotensive (WKY) rats [2]; [7]): No | Heart rate, Significance, comparison over 14 days [3, 5]: Yes | Days with statistically significant lower heart rate ([3]; vs. SHR-Control, p<0.05): 6 to 13 days | Heart rate, Significance, comparison over 14 days [3, 6]: No | Effect on heart rate (in words) [3]: statistically decreased the heart rate | Effect on heart rate (in words) ([3]; listed as β-cryptoxanthin): significantly lower | Change in blood pressure (in words) (normotensive (WKY) rats [4]; WKY normotensive rats, over 14 days of supplementation): did not show any significant blood pressure change | Blood pressure, Significance, comparison over 14 days (normotensive (WKY) rats [4]; vs. WKY-Control): No | Blood pressure, Significance, comparison over 14 days (normotensive (WKY) rats [4]; [7]): No
